From BindingDB's records for doi:10.1016/j.bmcl.2012.03.007 (Bristol-Myers Squibb, 2012)
pIC50: −log10 of the molar value.

Columns and labels:
[1] = Antagonist activity at CCR2 in human PBMC assessed as inhibition of MCP1-induced chemotaxis
[2] = Antagonist activity at CCR2 in mouse monocytes assessed as inhibition of MCP1-induced chemotaxis

SMILES | pIC50 [1] | pIC50 [2]
CCC[C@H](O)[C@H](CNCc1ccc(C)cc1C)NC(=O)CC(=O)Nc1cc(NC)cc(C(F)(F)F)c1 | 7.64 | –
CCC[C@H](O)[C@H](CNCc1ccc(C)cc1C)NC(=O)CNC(=O)c1cc(C(F)(F)F)ccc1NC(=O)N1CCNCC1 | 8.00 | –
CCC[C@H](O)[C@H](CNCc1ccc(C)cc1C)NC(=O)CNc1n[nH]c2ccc(C(F)(F)F)cc12 | 7.13 | –
CCC[C@H](O)[C@H](CNCc1ccc(C)cc1C)NC(=O)CNC(=O)c1cc(C(F)(F)F)ccc1NC(=O)OC(C)(C)C | 7.77 | –
CCC[C@H](O)[C@H](CNCc1ccc(C)cc1C)NC(=O)CC(=O)Nc1cc(N)cc(C(F)(F)F)c1 | 7.85 | –
CCC[C@H](O)[C@H](CNCc1ccc(C)cc1C)NC(=O)CNC(=O)c1cc(N)cc(C(F)(F)F)c1 | 7.70 | –
CCC[C@H](O)[C@H](CNCc1ccc(C)cc1C)NC(=O)CNC(=O)c1cc(C(F)(F)F)ccc1NC(=O)N1CCOCC1 | 7.89 | –
CCC[C@H](O)[C@H](CNCc1ccc(C)cc1C)NC(=O)CNC(=O)c1cc(C(F)(F)F)ccc1NC(=O)N1CCCC1 | 8.28 | –
CCC[C@H](O)[C@H](CNCc1ccc(C)cc1C)NC(=O)CNC(=O)c1cc(C(F)(F)F)ccc1NC(C)C | 8.05 | –
CCC[C@H](O)[C@H](CNCc1ccc(C)cc1C)NC(=O)CC(=O)Nc1cccc(C(F)(F)F)c1 | 7.09 | –
CCC[C@H](O)[C@H](CNCc1ccc(C)cc1C)NC(=O)CNC(=O)c1cc(C(F)(F)F)ccc1NC(C)(C)C | 7.48 | –
CCC[C@H](O)[C@H](CNCc1ccc(C)cc1C)NC(=O)CNC(=O)c1cc(C(F)(F)F)ccc1NC(=O)NCC | 7.62 | 8.40
CCC[C@H](O)[C@H](CNCc1ccc(C)cc1C)NC(=O)CC(=O)Nc1cc(NCC)cc(C(F)(F)F)c1 | 7.92 | –
CCC[C@H](O)[C@H](CNCc1ccc(C)cc1C)NC(=O)CNC(=O)c1cc(C(F)(F)F)ccc1NC(=O)N1CCC1 | 8.37 | –
CCC[C@H](O)[C@H](CNCc1ccc(C)cc1C)NC(=O)CNC(=O)c1cc(C(F)(F)F)ccc1N | 7.49 | –
CCC[C@H](O)[C@H](CNCc1ccc(C)cc1C)NC(=O)CNC(=O)c1cc(C(F)(F)F)ccc1NCc1ccccc1 | 8.14 | –
CCC[C@H](O)[C@H](CNCc1ccc(C)cc1C)NC(=O)CNC(=O)c1cc(C(F)(F)F)ccc1NC(=O)NC | 8.30 | –
